Results as given in patent US10414774B2, “Compound useful for altering the levels of bile acids for the treatment of diabetes and cardiometabolc disease” (Merck Sharp & Dohme Corp., priority 2016, dated 2019).
pIC50: −log10 of the molar value.

Target: T1, Human CYP8B1 (Homo sapiens, UniProt Q9UNU6)
T1 sequence (Q9UNU6 1-501): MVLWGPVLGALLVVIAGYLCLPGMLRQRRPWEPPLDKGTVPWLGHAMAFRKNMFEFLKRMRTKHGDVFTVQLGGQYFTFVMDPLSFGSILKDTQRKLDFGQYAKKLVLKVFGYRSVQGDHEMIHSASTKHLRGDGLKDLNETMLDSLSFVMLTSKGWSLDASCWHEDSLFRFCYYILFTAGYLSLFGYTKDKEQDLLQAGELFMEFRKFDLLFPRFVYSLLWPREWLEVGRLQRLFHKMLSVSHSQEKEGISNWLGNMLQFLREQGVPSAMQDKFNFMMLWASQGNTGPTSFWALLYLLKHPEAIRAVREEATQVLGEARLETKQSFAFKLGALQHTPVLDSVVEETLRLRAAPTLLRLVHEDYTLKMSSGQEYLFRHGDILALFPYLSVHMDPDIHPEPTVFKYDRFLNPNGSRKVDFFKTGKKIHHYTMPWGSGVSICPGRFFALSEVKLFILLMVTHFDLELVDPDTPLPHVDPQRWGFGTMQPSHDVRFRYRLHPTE
Assay: Human CYP8B1 Liver Microsome Assay
Conditions: Human CYP8B1 IC50, human liver microsomes; substrate 7a-hydroxy-4-cholesten-3-one, NADPH; RapidFire MS detection of 7α,12α-dihydroxy-4-cholesten-3-one

Row | SMILES | pIC50
1 | C[C@@H]1CN(c2c(C#N)cnc3c(F)c(C4CC4)ccc23)CC[C@@H]1C(=O)N1CCn2c(nnc2C(F)(F)F)C1 [Example 67, 7-cyclopropyl-8-fluoro-4-[(3S,4S)-3-methyl-4-{[3-(trifluoromethyl)-5,6-dihydro[1,2,4]triazolo[4,3-a]pyrazin-7(8H)-yl]carbonyl}piperidin-1-yl]quinoline-3-carbonitrile] | 9.05
2 | C[C@@H]1CN(c2c(C#N)cnc3c(F)c(OC(F)F)ccc23)CC[C@@H]1C(=O)N1CCn2c(nnc2C(F)(F)F)C1 [Example 36, 7-(difluoromethoxy)-8-fluoro-4-[(3S,4S)-3-methyl-4-{[3-(trifluoromethyl)-5,6-dihdyro[1,2,4]triazolo[4,3-a]pyrazin-7(8H)-yl]carbonyl}piperidin-1-yl]quinoline-3-carbonitrile] | 9.40
3 | C[C@@H]1CN(c2c(C#N)cnc3nc(C(F)(F)F)ccc23)CC[C@@H]1C(=O)N1CCn2c(nnc2C(F)(F)F)C1 [Example 21, 4-[(3S,4S)-3-methyl-4-{[3-(trifluoromethyl)-5,6-dihydro[1,2,4]triazolo[4,3-a]pyrazin-7(8H)-yl]carbonyl}piperidin-1-yl]-7-(trifluoromethyl)-1,8-naphthyridine-3-carbonitrile] | 8.32
4 | COc1ccc2c(N3C[C@@H](C)N(C(=O)N4CCn5c(nnc5C(F)(F)F)C4)[C@H](C)C3)c(C#N)cnc2c1 [Example 83a, 4-((3R,5R)-3,5-dimethyl-4-(3-(trifluoromethyl)-5,6,7,8-tetrahydro-[1,2,4]triazolo[4,3-a]pyrazine-7-carbonyl)piperazin-1-yl)-7-methoxyquinoline-3-carbonitrile] | 7.95
5 | Cc1nc2c(F)cc(F)cc2c(N2CCC(C(=O)N3CCn4c(nnc4C(F)(F)F)C3)CC2)c1C#N [Example 49, 6,8-difluoro-2-methyl-4-(4-(3-(trifluoromethyl)-5,6,7,8-tetrahydro-[1,2,4]triazolo[4,3-a]pyrazine-7-carbonyl)piperidin-1-yl)quinoline-3-carbonitrile] | 5.76
6 | N#Cc1cnc2c(F)c(Cl)ccc2c1N1CCC(C(=O)N2CCn3c(nnc3C(F)(F)F)C2)CC1 [Example 41, 7-chloro-8-fluoro-4-(4-{[3-(trifluoromethyl)-5,6-dihdyro[1,2,4]triazolo[4,3-a]pyrazin-7(8H)-yl]carbonyl}piperidin-1-yl)quinoline-3-carbonitrile] | 7.37
7 | C[C@@H]1CN(c2c(C#N)cnc3cc(F)ccc23)CC[C@@H]1C(=O)N1CCn2c(nnc2C(F)(F)F)C1 [Example 6, 7-fluoro-4-[(3S,4S)-3-methyl-4-{[3-(trifluoromethyl)-5,6-dihydro[1,2,4]triazolo[4,3-a]pyrazin-7(8H)-yl]carbonyl}piperidin-1-yl]quinoline-3-carbonitrile] | 8.68
8 | COc1ccc2ncc(C#N)c(N3CCC(C(=O)N4CCn5c(nnc5C(F)(F)F)C4)CC3)c2c1 [Example 46, 6-methoxy-4-(4-(3-(trifluoromethyl)-5,6,7,8-tetrahydro-[1,2,4]triazolo[4,3-a]pyrazine-7-carbonyl)piperidin-1-yl)quinoline-3-carbonitrile] | 7.17
9 | C[C@@H]1CN(c2c(C#N)c(CO)nc3ccc(Cl)cc23)CC[C@@H]1C(=O)N1CCn2c(nnc2C(F)(F)F)C1 [Example 61, 6-chloro-2-(hydroxymethyl)-4-[(3S,4S)-3-methyl-4-{[3-(trifluoromethyl)-5,6-dihydro[1,2,4]triazolo[4,3-a]pyrazin-7(8H)-yl]carbonyl}piperidin-1-yl]quinoline-3-carbonitrile] | 8.35
10 | COc1ccc2c(N3CC[C@H](C(=O)N4CCn5c(nnc5C(F)(F)F)C4)[C@H](C)C3)c(C#N)cnc2c1 [Example 28, 7-methoxy-4-[(3S,4S)-3-methyl-4-{[3-(trifluoromethyl)-5,6-dihdyro[1,2,4]triazolo[4,3-a]pyrazin-7(8H)-yl]carbonyl}piperidin-1-yl]quinoline-3-carbonitrile] | 9.21
11 | C[C@@H]1CN(c2c(C#N)cnc3c(F)c(C(F)(F)F)ccc23)CC[C@@H]1C(=O)N1CCn2c(nnc2C(F)(F)F)C1 [Example 17, 8-fluoro-4-[(3S,4S)-3-methyl-4-{[3-(trifluoromethyl)-5,6-dihydro[1,2,4]triazolo[4,3-a]pyrazin-7(8H)-yl]carbonyl}piperidin-1-yl]-7-(trifluoromethyl)quinoline-3-carbonitrile] | 9.44
12 | COc1ccc2c(N3CC[C@H](C(=O)N4Cc5nnc(C(F)(F)F)n5C(C)(C)C4)[C@H](C)C3)c(C#N)cnc2c1F [Example 82, 4-((3S,4S)-4-(5,5-dimethyl-3-(trifluoromethyl)-5,6,7,8-tetrahydro-[1,2,4]triazolo[4,3-a]pyrazine-7-carbonyl)-3-methylpiperidin-1-yl)-8-fluoro-7-methoxyquinoline-3-carbonitrile] | 7.24
13 | CC1CC(C(=O)N2CCn3c(nnc3C(F)(F)F)C2)CCN1c1c(C#N)cnc2ccc(Cl)cc12 (single isomer, unassigned) [Example 73d, 6-chloro-4-[(2R,4S) or (2S,4R)-2-methyl-4-{[3-(trifluoromethyl)-5,6-dihydro[1,2,4]triazolo[4,3-a]pyrazin-7(8H)-yl]carbonyl}piperidin-1-yl]quinoline-3-carbonitrile] | 6.20
14 | COc1ccc2nc(C)c(C#N)c(N3CCC(C(=O)N4CCn5c(nnc5C(F)(F)F)C4)CC3)c2c1 [Example 47, 6-methoxy-2-methyl-4-(4-(3-(trifluoromethyl)-5,6,7,8-tetrahydro-[1,2,4]triazolo[4,3-a]pyrazin-7-carbonyl)piperidin-1-yl)quinoline-3-carbonitrile] | 6.25
15 | C[C@@H]1CN(c2c(C#N)cnc3cc(OC(F)(F)F)ccc23)CC[C@@H]1C(=O)N1CCn2c(nnc2C(F)(F)F)C1 [Example 22, 4-[(3S,4S)-3-methyl-4-{[3-(trifluoromethyl)-5,6-dihydro[1,2,4]triazolo[4,3-a]pyrazin-7(8H)-yl]carbonyl}piperidin-1-yl]-7-(trifluoromethoxy)quinoline-3-carbonitrile] | 9.66

More lines, now with the values ahead:

Row | pIC50 | SMILES
16 | 9.15 | C[C@@H]1CN(c2c(C#N)cnc3c(F)cc(C(F)F)cc23)CC[C@@H]1C(=O)N1CCn2c(nnc2C(F)(F)F)C1 [Example 88, 6-(difluoromethyl)-8-fluoro-4-((3S,4S)-3-methyl-4-(3-(trifluoromethyl)-5,6,7,8-tetrahydro-[1,2,4]triazolo[4,3-a]pyrazine-7-carbonyl)piperidin-1-yl)quinoline-3-carbonitrile]
17 | 8.07 | Cc1nc2ccc(Cl)cc2c(N2CC[C@H](C(=O)N3CCn4nccc4C3)[C@H](C)C2)c1C#N [Example 96, 6-chloro-4-[(3S,4S)-4-(6,7-dihydropyrazolo[1,5-a]pyrazin-5(4H)-ylcarbonyl)-3-methylpiperidin-1-yl]-2-methylquinoline-3-carbonitrile]
18 | 8.68 | N#Cc1cnc2ccc(Cl)cc2c1N1CCC(C(=O)N2CCn3c(nnc3C(F)(F)F)C2)C(C(F)(F)F)C1 (stereo not drawn) [Example 118, 6-chloro-4-[3-(trifluoromethyl)-4-{[3-(trifluoromethyl)-5,6-dihydro[1,2,4]triazolo[4,3-a]pyrazin-7(8H)-yl]carbonyl}piperidin-1-yl]quinoline-3-carbonitrile]
19 | 7.77 | Cc1nc2ccc(Cl)cc2c(N2CC[C@H](C(=O)N3CCc4[nH]ncc4C3)[C@H](C)C2)c1C#N [Example 95, 6-chloro-2-methyl-4-[(3S,4S)-3-methyl-4-(1,4,6,7-tetrahydro-5H-pyrazolo[4,3-c]pyridin-5-ylcarbonyl)piperidin-1-yl]quinoline-3-carbonitrile]
20 | 8.72 | C[C@@H]1CN(c2c(C#N)c[n+]([O-])c3ccc(Cl)cc23)CC[C@@H]1C(=O)N1CCn2c(nnc2C(F)(F)F)C1 [Example 123, 6-chloro-3-cyano-4-((3S,4S)-3-methyl-4-(3-(trifluoromethyl)-5,6,7,8-tetrahydro-[1,2,4]triazolo[4,3-a]pyrazine-7-carbonyl)piperidin-1-yl)quinoline 1-oxide]
21 | 5.78 | CC(C)c1ncc2n1CCN(C(=O)C1CCN(c3c(C#N)cnc4ccc(Cl)cc34)CC1)C2 [Example 115, 6-chloro-4-(4-{[3-(propan-2-yl)-5,6-dihydroimidazo[1,5-a]pyrazin-7(8H)-yl]carbonyl}piperidin-1-yl)quinoline-3-carbonitrile]
22 | 7.72 | Cc1nc2ccc(Cl)cc2c(N2CC[C@H](C(=O)N3CCc4sc(C(F)(F)F)nc4C3)[C@H](C)C2)c1C#N [Example 98, 6-chloro-2-methyl-4-[(3S,4S)-3-methyl-4-{[2-(trifluoromethyl)-6,7-dihydro[1,3]thiazolo[4,5-c]pyridin-5(4H)-yl]carbonyl}piperidin-1-yl]quinoline-3-carbonitrile]
23 | 6.01 | COc1ccc2c(N3C[C@@H](C)N(C(=O)N4CCn5c(nnc5C(F)(F)F)C4)[C@@H](C)C3)c(C#N)cnc2c1 [Example 83b, 4-((3S,5R)-3,5-dimethyl-4-(3-(trifluoromethyl)-5,6,7,8-tetrahydro-[1,2,4]triazolo[4,3-a]pyrazine-7-carbonyl)piperazin-1-yl)-7-methoxyquinoline-3-carbonitrile]
24 | 7.16 | CC1CN(C(=O)C2CCN(c3c(C#N)cnc4ccc(Cl)cc34)CC2)Cc2nnc(C(F)(F)F)n21 (stereo not drawn) [Example 112, 6-chloro-4-(4-{[5-methyl-3-(trifluoromethyl)-5,6-dihydro[1,2,4]triazolo[4,3-a]pyrazin-7(8H)-yl]carbonyl}piperidin-1-yl)quinoline-3-carbonitrile]
